SMILES strings stand for the structures. Counter-ions that a name gives are not always drawn.

In the data set the test system is rat hepatocytes. The data set is described as follows: metabolism sample: incubation of sibutramine with rat hepatocytes, metabolites detected by μPESI/MS. It counts as in vitro ADME. As to conditions: R-enantiomer of sibutramine hydrochloride incubated with rat hepatocytes for 8 h, 2.5-μl injection, Q-TOF Micro. As for the experimental part:
For bioanalysis experiments verapamil, angiotensin I, angiotensin II, substance P, and horse heart myoglobin were used as test compounds and 2.5 μl of each sample was pipetted to the sample introduction spot. For the measurements of linearity and sensitivity verapamil was dissolved into acetonitrile:water (95:5) with 0.1% formic acid at concentrations of 10 pM to 10 μM. The metabolism sample was prepared by incubating R-enantiomer of sibutramine hydrochloride (purity>99%) with rat hepatocytes for 8 h. After sample preparation the sample was evaporated dryness and the residue was diluted to 50 μl of methanol. 10 μl of sample was dissolved into 500 μl acetonitrile:water (95:5) with 0.1% formic acid.
The peptides (angiotensin I, angiotensin II, and substance P) and the protein (horse heart myoglobin) were diluted into 80% aqueous methanol containing 1% acetic acid (two separate samples). The concentrations were 5 μM for the peptides and 300 nM for horse heart myoglobin. Full-scan mass spectra ranging from m/z 400 to 750 were measured from the peptide mixture and m/z 700 to 950 from the protein in the positive mode. Sibutramine metabolism sample was measured with Q-TOF Micro. A mass spectrum of solvent blank sample was subtracted from that of metabolism sample. […]

In the case of `CC(C)CC(N(C)C)C1(c2ccc(Cl)cc2)CCC1` (stereo not shown) [sibutramine, sibutramine hydrochloride], the “sibutramine metabolites found in metabolism sample” value was “small amounts of sibutramine glucuronides were found”.
